For orientation: IC50 means the concentration needed to halve the response being measured.

≈ marks a conversion by molar mass, not a printed value. Where “and” joins values, the source holds several entries; their conditions need not be identical. Identical values can stand only once. Like-named read-outs stand apart in the source and are kept apart here. A value given as a limit tells only on which side of the number the result lay.

Here are results for four compounds from US20130261133A1, “Therapeutic Compounds for Protozoal and Microbial Infections and Cancer” (THE UNIVERSITY OF MONTANA, priority 2012, published 2013).

One series has as its system Leishmania amazonensis. Description: Antileishmanial assay, Leishmania in infected macrophages (L. amazonensis). The settings on record: for IC50: Leishmania amazonensis, Macrophage.
Series [1] relates to P. falciparum clone W2/Indochina. Nature of the series: In vitro malaria assay, [3H]-hypoxanthine incorporation. Format: cell-based. The settings on record: Plasmodium falciparum, W2, 72 h, read-out: IC50 Plasmodium. How it is done:
a. In vitro Parasite Culturing: P. falciparum clone W2/Indochina was grown in continuous culture using RPMI 1640 media containing 10% heat-inactivated type A+ human plasma, sodium bicarbonate (2.4 g/L), HEPES (5.94 g/L) and 4% washed human type A+ erythrocytes. Cultures were gassed with a 90% N2, 5% O2 and 5% CO2 mixture followed by incubation at 37° C. b. Assay Preparation: Test compounds at 5 mg/mL in DMSO were diluted 1:500 and then serially diluted in duplicate over 11 concentrations. P. falciparum cultures with >70% ring stage parasites were diluted to 0.5-0.7% parasitemia and 1.5% hematocrit in RPMI 1640 media. In 96-well plates a volume of 90 μl/well of parasitized erythrocytes was added on top of 10 μL/well of the test compound. A separate plate containing chloroquine, dihydroartemisinin and atovaquone was added to each set of assay plates as control drugs. A Beckman Coulter Biomek 3000 was used to dispense test compounds, control drugs and parasitized erythrocytes into the microtiter plates. Positive and negative controls were included in each plate. Positive controls consisted of parasitized erythrocytes and negative controls consisted of non-parasitized erythrocytes at 1.5% hematocrit in RPMI 1640 media. Assay plates were placed into a modulator incubator chamber and equilibrated with 90% N2, 5% O2 and 5% CO2 mixture then incubated at 37° C. for 48 hours. After 48 hours, approximately 0.05 μCi of [^3H]-hypoxanthine monohydrochloride was added to each well of the assay plates. Plates were put back into the modulator incubation chamber, gassed with the 90% N2, 5% O2 and 5% CO2 mixture then incubated at 37° C. for an additional 24 hours. After 72 hours total incubation time the plates were frozen at −80° C. until later processed for parasite growth determinations. c. Assay Plate Processing: Assay plates were harvested using a Perkin Elmer FilterMate Harvester. The incorporation of [^3H]-hypoxanthine into nucleic acid was measured using a Perkin Elmer Topcount NXT Microplate Scintillation & Luminescence Counter. d. Data Analysis: Data analysis was performed using a custom database manager (Dataspects, Inc). Nonlinear regression analysis was used to calculate EC50.

The subject of series [2] is Leishmania donovani in infected macrophages. The settings on record: Senn et al. 2007; read-out: IC50 against Leishmania donovani in infected macrophages; cited from earlier work.
The next series has as its system B. anthracis. Type of series: cell-based. The settings on record: minimum inhibitory concentration.
The test system of a further series is S. pyogenes. Description: MIC broth microdilution, Alamar Blue. Format: cell-based. The note with it: minimum inhibitory concentration.
A further series deals with P. aeruginosa. Description: MIC broth microdilution, Alamar Blue. Format: cell-based. The settings on record: minimum inhibitory concentration. In general terms: In broth dilution the organism is exposed to a series of concentrations in liquid medium.
A further series concerns C. glabrata. Nature of the series: MIC broth microdilution, Alamar Blue. Format: cell-based. The settings on record: minimum inhibitory concentration.
For the next series, the system named is HepG2 cells. Nature of the series: Cytotoxicity against human liver (HepG2) cells, Alamar Blue. Type of series: cell-based. How it is done: Several of these analogues were also evaluated for cytotoxicity against human liver (HepG2) cells. Of particular interest was that compounds 47 and 48 were approximately an order of magnitude less cytotoxic as compared to compound 1.
Adherent cell lines were maintained in Eagle's Minimal Essential Media (Sigma-Aldrich, St. Louis, Mo., USA) with 2 mM glutamine and Earle's Balanced Salt Solution (HyClone, Logan, Utah, USA) adjusted to contain 1.5 g/L sodium bicarbonate, 0.1 mM non-essential amino acids, 1 mM sodium pyruvate and 10% fetal calf serum. Fetal calf serum used in these assays was lot matched throughout. All cultures were maintained under a humidified 5% CO2 atmosphere at 37° C., had media refreshed twice weekly and were subcultured by trypsinization and resuspension at a ratio of 1:5 each week. Toxicity assays were conducted between passages 10-20. Target compound toxicity was measured by incubating the test compound with the cells for 4 hours, washing the cells and finally treating the cells with Alamar Blue. After 12-24 hours, the fluorescence of the reduced dye was measured. Fluorescence intensity as a function of test compound concentration was fit to the Fermi equation, using non-linear least squares regression analysis, to estimate IC50 values.

The next series deals with S. aureus 13709. Nature of the series: MIC broth microdilution, Alamar Blue. Format: cell-based. The note with it: minimum inhibitory concentration.
In a further series the test system is C. albicans. Description: MIC broth microdilution, Alamar Blue. The note with it: minimum inhibitory concentration. Type of series: cell-based.
A further series concerns B. subtilis. Nature of the series: MIC broth microdilution, Alamar Blue. Type of series: cell-based. The note with it: minimum inhibitory concentration.
Another series deals with E. faecalis. Nature of the series: MIC broth microdilution, Alamar Blue. Format: cell-based. The note with it: minimum inhibitory concentration.
In another series the test system is Leishmania donovani. Description: Antileishmanial assay, Leishmania in infected macrophages (L. donovani). The settings on record: for Selectivity Index: IC50 for HepG2 cells/IC50 for Leishmania donovani; for IC50: Leishmania donovani, Macrophage.
Series [3] concerns leishmaniasis (LV82 PM infection), liver parasitemia. Description: In vivo efficacy: liver parasitemia in BALB/c mice with leishmaniasis. The note with it: 10 mg/kg i.p.; for LDU mean ± SD: group mean, n=4; for % Reduction (Average) in liver parasitemia: infected BALB/c mice; for # of amastigotes per 200 nuclei: liver; for # of amastigotes per 200 nuclei / LDU: individual mice; for LDU: total liver parasitemia. How it is done:
The following protocols were used to prepare the various treatments described in Table 2: • a. Miltefosine ([…] stock solution in sterile PBS): 7.5 mg miltefosine was weighed and put in a eppendorf tube, then 0.75 mL of sterile PBS was added. After vortexing, a clear solution was formed. Make 1 mg/mL solution daily by diluting 100 μL of 10 mg/mL miltefosine solution in 900 μL sterile PBS. • b. Vehicle control: 5% (v/v) DMSO, 50% (v/v) PEG 400, 10% (v/v) Ethanol, and 35% (v/v) distilled water. • c. Compound 47 (2 mg/mL solution of compound 47 in PEG 400/Ethanol vehicle): […]. Dilute the above solution 1:20 with PEG 400/EtOH/water daily. After vortexing and warming up at 37° C. for 30 min., a clear solution formed. • d. Compound 48 (2 mg/mL solution of compound 48 in PEG 400/Ethanol vehicle): 6.8 mg of compound 48 was dissolved in 0.17 mL of DMSO to make a 40 mg/mL stock solution. After vortexing, a yellowish-brown solution was formed. Diluted the above solution 1:20 with PEG 400/EtOH/water daily. After vortexing a clear solution formed. • e. Compound 50 (2 mg/mL solution of compound 50 in PEG 400/Ethanol vehicle): 8.4 mg of compound 50 was dissolved in 0.21 mL of DMSO to make a 40 mg/mL stock solution. After vortexing, a dark yellowish-brown solution was formed. Diluted the above solution 1:20 with PEG 400/EtOH/water. After vortexing a clear solution formed.
(§1) Compounds 47, 48, and 50 were then evaluated in animal studies with BALB/c mice with leishmaniasis. Compounds were delivered via i.p. injection at 10 mg/kg, with untreated, vehicle, and miltefosine controls as described in Table 2. […] Miltefosine, the only oral treatment currently available to treat leishmaniasis in humans, was also evaluated in the BALB/c mice for comparison purposes.

The nature of series [4]: Body and organ weights of infected, treated BALB/c mice. Type of series: in vivo. The note with it: for Body weight / Mean body weight of mice Post-treatment: 10 mg/kg i.p.; for Body weight: individual mice, Table 4; for Mean body weight of mice Post-treatment / Mean body weight of mice Pre-treatment: group mean; for Mean body weight of mice Pre-treatment: pre-treatment (baseline). How it is done:
as §1

Where [5] appears, read: read-out: IC50 Leishmania in infected macrophages.
[6] abbreviates: read-out: IC50 against Leishmania amazonensis.
Setting [7] is: HepG2, read-out: IC50 against the HepG2 cell line.
[8] abbreviates: HepG2, read-out: IC50 mammalian HepG2 cells.

On to `C=CC(C#CC#CC(O)CCCCCCCCC)OC(C)=O` [(S,S)-1, 8-hydroxyheptadeca-1-ene-4,6-diyn-3-yl acetate, reference compound], for which the IC50 was 1280 nM in the series on Leishmania amazonensis (setting [5]), 1280 nM in the series on Leishmania amazonensis (setting [6]), 0.27 µg/mL in series [1] and 320 nM in series [2].
For the compound `C=C[C@@H](C#CC#C[C@H](O)CCCCCCCCC)OC(C)=O` [Compound 1, (3S,8R)-8-hydroxyheptadeca-1-en-4,6-diyn-3-yl acetate], in the series with B. anthracis, the “MIC B. anthracis” value is given as 4. In the series with Leishmania amazonensis (IC50 for HepG2 cells/IC50 for Leishmania amazonensis), the “Selectivity Index” value is 60. Besides, the IC50 in the series with Leishmania amazonensis (setting [5]) is 626 nM; in the series with Leishmania amazonensis (setting [6]), 630 nM; in the series with HepG2 cells (setting [7]) it was 35000 ± 3000 nM; in the series with HepG2 cells (setting [8]), 35000 ± 3000 nM; in [1], 0.341 µg/mL. Also, the “MIC S. pyogenes” value in the series with S. pyogenes was 8. The “MIC P. aeruginosa” value with P. aeruginosa is more than 1000. The “MIC C. glabrata” value with C. glabrata is listed as more than 1000. In addition, the “MIC S. aureus” value with S. aureus 13709 was more than 1000. The “MIC C. albicans” value against C. albicans is recorded as more than 1000. Further, the “MIC B. subtilis” value against B. subtilis turned out to be 8. In addition, the “MIC E. faecalis” value with E. faecalis came to 32.
`C=C[C@@H](C#CC#C[C@@H](CCCCCCCCC)NCCCC)OC(C)=O` [Compound 48, (3S,8R)-8-(butylamino)heptadeca-1-en-4,6-diyn-3-yl acetate]: the “MIC B. anthracis” value against B. anthracis is reported as 250. Further, the “MIC S. pyogenes” value with S. pyogenes amounted to 250. For the same compound, in the series with Leishmania donovani, the “Selectivity Index” value is listed as 10,000. Besides, in the series with Leishmania donovani (setting [5]), the IC50 was 34 nM. In addition, in the series on P. aeruginosa, the “MIC P. aeruginosa” value is given as more than 1000. Moreover, the “MIC C. glabrata” value in the series with C. glabrata was more than 1000. In the series with HepG2 cells (setting [7]), the IC50 worked out at 342000 ± 46000 nM. Also, in the series with HepG2 cells (setting [8]), the concentration for half-maximal inhibition (IC50) amounted to 342000 ± 46000 nM. Moreover, the “MIC S. aureus” value against S. aureus 13709 is recorded as 500. In addition, the “MIC C. albicans” value against C. albicans is 1000. In [3], the “LDU mean ± SD” value came to 2721.9; the “% Reduction (Average) in liver parasitemia” value (“% Reduction (Average)” below) came to 32.4%; the “# of amastigotes per 200 nuclei” value was 536 and 529 and 498 and 476; the LDU is 2541.4 and 2830.2 and 2913.1 and 2603.0. For the same compound, the “% Reduction (Average)” value in [3] (listed as compound 48) is 32%. Besides, in series [1], the IC50 was found to be 5.72 µg/mL. Further, in series [4], the Body weight is 17.2 g and 19.2 g and 19.8 g and 19.0 g; the “Mean body weight of mice Post-treatment” value is given as 18.8 g; the “Mean body weight of mice Pre-treatment” value was 19.3 g. Besides, the “MIC B. subtilis” value in the series on B. subtilis is 125. In addition, the “MIC E. faecalis” value in the series with E. faecalis is reported as 500.
Turning to `C=C[C@H](O)C#CC#C[C@H](O)CCCCCCCCC` [Compound 50, (3S,8R)-heptadeca-1-en-4,6-diyne-3,8-diol], the “MIC B. anthracis” value with B. anthracis is on record as 1000. Also, the “MIC S. pyogenes” value against S. pyogenes is given as 8. The “Selectivity Index” value with Leishmania donovani was 2900. In addition, the IC50 is 13 nM in the series on Leishmania donovani (setting [5]); 13 nM in the series with Leishmania donovani (read-out: IC50 anti-Leishmanial); 38000 ± 2000 nM in the series on HepG2 cells (setting [7]); 38000 ± 2000 nM in the series on HepG2 cells (setting [8]); 0.271 µg/mL (≈ 1.03 µM) in series [1]. Besides, in the series with P. aeruginosa, the “MIC P. aeruginosa” value is 4. Moreover, the “MIC C. glabrata” value in the series with C. glabrata amounted to 8. Also, the “MIC S. aureus” value in the series on S. aureus 13709 amounted to 16. The “MIC C. albicans” value in the series with C. albicans amounted to 16. Besides, the “LDU mean ± SD” value in series [3] turned out to be 2367.2. Moreover, the “% Reduction (Average)” value was 41.2% in series [3] and 41% in [3] (listed as compound 50). Also, the “# of amastigotes per 200 nuclei” value in series [3] was 628 and 557 and 643 and 612. Besides, the LDU in [3] is 2737.5 and 2143.9 and 2654.9 and 1932.7. In addition, the Body weight in series [4] is 15.7 g and 14.6 g and 14.1 g and 13.4 g. Besides, in series [4], the “Mean body weight of mice Post-treatment” value is recorded as 14.5 g. Further, in [4], the “Mean body weight of mice Pre-treatment” value came out at 16.3 g. For the same compound, the “MIC B. subtilis” value with B. subtilis is 2. In addition, the “MIC E. faecalis” value with E. faecalis worked out at 16.
